From patent US6482824B1, “Use of n-substituted (3,6-dihydro)-2h-1,2-oxazine derivatives as selective mglur1 antagonists” (Eli Lilly and Company, priority 1998, dated 2002)

Test: ability of test compounds to treat migraine (as described in U.S. Pat. No. 5,817,671, U.S. Pat. No. 5,792,763 and J. Neurosci. Methods 1998, 81, 19-24)
Conditions: in vivo

## CCOc1ccc(C2ON(S(=O)(=O)c3ccc(C(=O)NC)cc3)C(C)C=C2C)cc1 (stereo not shown) [Example 5, 3,6-Dihydro-3,5-dimethyl-6-(4-ethoxyphenyl)-2-(4-methylcarbamoylbenzenesulphonyl)-2H-1,2-oxazine]
  effectiveness in treatment of migraine: particularly effective
